Experimental data from PubChem BioAssay (NCI).
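How tested: cells in 96-well plates exposed to compound for 48 hours at five concentrations. Definition used: TGI = concentration required for complete inhibition of growth.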

How the values were obtained:
Assay in all cases: NCI anticancer screen, dose series, 48 h
SK-MEL-5 melanoma = tested on: SK-MEL-5 melanoma
UACC-62 melanoma = tested on: UACC-62 melanoma
EKVX NSCLC = tested on: EKVX NSCLC
CAKI-1 renal = tested on: CAKI-1 renal
SN12C renal = tested on: SN12C renal
M14 melanoma = tested on: M14 melanoma
RXF 393 renal = tested on: RXF 393 renal
SK-MEL-28 melanoma = tested on: SK-MEL-28 melanoma
ACHN renal = tested on: ACHN renal
HOP-92 NSCLC = tested on: HOP-92 NSCLC
SNB-75 CNS = tested on: SNB-75 CNS

Structure (SMILES) | TGI (SK-MEL-5 melanoma) [µM] | TGI (UACC-62 melanoma) [µM] | TGI (EKVX NSCLC) [µM] | TGI (CAKI-1 renal) [µM] | TGI (SN12C renal) [µM] | TGI (M14 melanoma) [µM] | TGI (RXF 393 renal) [µM] | TGI (SK-MEL-28 melanoma) [µM] | TGI (ACHN renal) [µM] | TGI (HOP-92 NSCLC) [µM] | TGI (SNB-75 CNS) [µM]
COC(=O)c1cc(NC(=O)Cc2c[nH]c3ccccc23)cn1C | > 100 | > 100 | > 100 | > 100 | > 100 | > 100 | > 100 | > 100 | > 100 | – | –
O=C1/C(=C/c2ccccc2[N+](=O)[O-])N=C(c2ccccc2)N1c1nc2ccccc2s1 | > 100 | – | > 100 | > 100 | 64.3 | > 100 | 33.7 | > 100 | 82.1 | 52.1 | 64.6
O=[N+]([O-])c1ccc(-n2nc3ccc4c(no[n+]4[O-])c3n2)cc1 | > 100 | > 100 | > 100 | > 100 | > 100 | > 100 | – | > 100 | > 100 | > 100 | > 100
Cc1ccc(C)n2c1nc1ccccc12 | > 100 | > 100 | > 100 | – | > 100 | > 100 | > 100 | > 100 | > 100 | > 100 | > 100
COC1CC(OC2C(C)OC(OC3C(C)OC(OC4C(C)OC(O[C@H]5CC[C@@]6(C)C(=CC[C@]7(O)[C@@H]6C[C@@H](OC(C)=O)[C@@]6(C)[C@]7(O)CC[C@@]6(O)C(C)=O)C5)CC4OC)CC3OC)CC2OC)OC(C)C1O (stereo not given in full) | > 25 | > 25 | > 25 | > 25 | > 25 | > 25 | – | – | > 25 | > 25 | > 25
CSc1ccc(Nc2cc(=O)[nH]c(=O)[nH]2)cc1 | > 100 | > 100 | – | > 100 | > 100 | > 100 | – | > 100 | > 100 | > 100 | –
CCOC(=O)c1nc2cc(C(F)(F)F)ccc2nc1Nc1ccc(C(=O)OC)s1 | > 100 | 66.8 | > 100 | > 100 | – | > 100 | 50.8 | > 100 | > 100 | 54 | > 100
CC(C)CC(N)C(=O)Nc1ccc2ccccc2c1 (stereo not given) | > 100 | > 100 | > 100 | > 100 | > 100 | > 100 | > 100 | > 100 | > 100 | – | > 100
COC(=O)/C=C1/OC(c2ccccc2)=C(C)C1=O | 34.2 | 11.5 | 32 | 14.8 | – | 24.4 | 22.5 | 31.1 | 25.7 | 26.2 | 43
CC(=O)OCC(=O)OC[C@H](OCc1ccccc1)[C@@H]1[C@H](OC(C)=O)C(=O)N1Cc1ccccc1 | > 100 | > 100 | > 100 | – | > 100 | > 100 | – | > 100 | > 100 | > 100 | > 100
